Experimental data published in patent publication US9834550B2, “Pyridopyrimidinone compounds for modulating the catalytic activity of histone lysine demethylases (KDMs)” (Dong-A Socio Holdings Co., Ltd., priority 2014, dated 2017).

Biological target: T1, Recombinant human JARID1B/KDM5B (Homo sapiens, UniProt Q9UGL1)
T1 construct: purchased Active Motif 31432; host or cells: Sf9 insect cells
Assay: LANCE Ultra TR-FRET demethylase assay with FLAG-tagged JARID1B
Type: biochemical
Conditions: 100 nM compound; 500 nM biotinylated H3K4me3 peptide substrate
How it was run: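 Sf9-expressed N-FLAG full-length JARID1B (10–30 nM) preincubated 5 min with compound at 20, 1 or 0.1 uM (1% DMSO), then 500 nM biotin-H3K4me3 peptide, 500 uM 2-OG, 25 uM Fe(II), 2 mM ascorbate added; 30 min at room temperature in Hepes pH 7.5. H3K4me2/1 product read by TR-FRET 665/590 ratio.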

T1 sequence (Q9UGL1 whole entry): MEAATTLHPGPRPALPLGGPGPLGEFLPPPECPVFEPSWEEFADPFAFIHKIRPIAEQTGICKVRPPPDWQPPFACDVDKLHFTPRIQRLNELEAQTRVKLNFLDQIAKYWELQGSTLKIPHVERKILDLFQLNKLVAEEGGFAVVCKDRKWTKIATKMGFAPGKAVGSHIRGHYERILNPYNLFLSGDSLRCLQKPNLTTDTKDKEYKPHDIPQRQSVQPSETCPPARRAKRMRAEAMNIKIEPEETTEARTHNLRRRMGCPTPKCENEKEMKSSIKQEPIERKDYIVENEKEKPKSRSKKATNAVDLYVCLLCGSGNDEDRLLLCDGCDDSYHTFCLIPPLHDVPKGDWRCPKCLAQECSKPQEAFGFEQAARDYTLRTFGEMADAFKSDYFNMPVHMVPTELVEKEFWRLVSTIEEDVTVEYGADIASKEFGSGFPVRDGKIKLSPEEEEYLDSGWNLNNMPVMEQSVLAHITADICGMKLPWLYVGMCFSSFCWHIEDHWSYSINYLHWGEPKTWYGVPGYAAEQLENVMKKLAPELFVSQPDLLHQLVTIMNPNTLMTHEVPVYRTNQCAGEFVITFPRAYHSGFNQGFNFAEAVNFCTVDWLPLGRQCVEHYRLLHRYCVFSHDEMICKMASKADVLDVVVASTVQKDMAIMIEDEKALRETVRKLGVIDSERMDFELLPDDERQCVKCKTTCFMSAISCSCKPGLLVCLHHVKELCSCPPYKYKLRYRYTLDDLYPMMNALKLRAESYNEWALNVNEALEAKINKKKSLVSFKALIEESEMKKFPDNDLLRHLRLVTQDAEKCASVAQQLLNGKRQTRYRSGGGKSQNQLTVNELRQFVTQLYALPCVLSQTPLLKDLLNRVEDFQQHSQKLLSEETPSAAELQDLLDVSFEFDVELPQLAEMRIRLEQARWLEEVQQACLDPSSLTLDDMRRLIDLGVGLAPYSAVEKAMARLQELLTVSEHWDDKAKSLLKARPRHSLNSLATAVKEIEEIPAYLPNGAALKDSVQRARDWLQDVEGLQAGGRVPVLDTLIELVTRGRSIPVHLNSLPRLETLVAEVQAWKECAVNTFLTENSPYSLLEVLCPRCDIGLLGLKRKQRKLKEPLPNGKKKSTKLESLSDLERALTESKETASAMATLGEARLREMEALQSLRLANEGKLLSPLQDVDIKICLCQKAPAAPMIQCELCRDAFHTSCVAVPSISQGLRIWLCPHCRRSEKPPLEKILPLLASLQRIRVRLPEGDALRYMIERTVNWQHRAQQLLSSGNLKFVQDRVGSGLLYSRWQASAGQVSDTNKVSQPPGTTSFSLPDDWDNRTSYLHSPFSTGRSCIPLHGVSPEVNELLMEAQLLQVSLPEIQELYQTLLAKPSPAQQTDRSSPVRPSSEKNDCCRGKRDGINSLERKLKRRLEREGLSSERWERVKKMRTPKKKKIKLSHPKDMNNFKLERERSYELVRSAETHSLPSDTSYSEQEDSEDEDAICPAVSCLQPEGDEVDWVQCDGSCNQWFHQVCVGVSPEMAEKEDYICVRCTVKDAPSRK

inhibition at 0.1 µM | Structure (SMILES)
20 to 50% | CN1CCC(CNCc2nccc3c(=O)[nH]c(COCc4ccccc4)nc23)C1 (stereo not drawn) [Example 205, 2-((benzyloxy)methyl)-8-((((1-methylpyrrolidin-3-yl)methyl)amino)methyl)pyrido[3,4-d]pyrimidin-4(3H)-one]
< 20% | CC(Oc1ccc(Cc2ccccc2)cc1)c1nc2c(CNCC3CCN(C)CC3)nccc2c(=O)[nH]1 (stereo not drawn) [Example 211, 2-(1-(4-benzylphenoxy)ethyl)-8-((((1-methylpiperidin-4-yl)methyl)amino)methyl)pyrido[3,4-d]pyrimidin-4(3H)-one]
20 to 50% | CC(Oc1ccc(Cc2ccccc2)cc1)c1nc2c(CNCC3CCNCC3)nccc2c(=O)[nH]1 (stereo not drawn) [Example 212, 2-(1-(4-benzylphenoxy)ethyl)-8-(((piperidin-4-ylmethyl)amino)methyl)pyrido[3,4-d]pyrimidin-4(3H)-one]
20 to 50% | CC(Oc1ccc(Cc2ccccc2)cc1)c1nc2c(CNC[C@H]3CCNC3)nccc2c(=O)[nH]1 (stereo partly drawn) [Example 213, 2-(1-(4-benzylphenoxy)ethyl)-8-(((((S)-pyrrolidin-3-yl)methyl)amino)methyl)pyrido[3,4-d]pyrimidin-4(3H)-one]
20 to 50% | CC(Oc1ccc(Cc2ccccc2)cc1)c1nc2c(CNCC3CCN(C)C3)nccc2c(=O)[nH]1 (stereo not drawn) [Example 214, 2-(1-(4-benzylphenoxy)ethyl)-8-((((1-methylpyrrolidin-3-yl)methyl)amino)methyl)pyrido[3,4-d]pyrimidin-4(3H)-one]
> 50% | C[C@@H](Oc1ccc(Cc2ccccc2)cc1)c1nc2c(CNCC3CCNCC3)nccc2c(=O)[nH]1 [Example 215, (R)-2-(1-(4-benzylphenoxy)ethyl)-8-(((piperidin-4-ylmethyl)amino)methyl)pyrido[3,4-d]pyrimidin-4(3H)-one]
> 50% | C[C@@H](Oc1ccc(Cc2ccccc2)cc1)c1nc2c(CNCC3CCN(C)CC3)nccc2c(=O)[nH]1 [Example 216, (R)-2-(1-(4-benzylphenoxy)ethyl)-8-((((1-methylpiperidin-4-yl)methyl)amino)methyl)pyrido[3,4-d]pyrimidin-4(3H)-one]
20 to 50% | C[C@@H](Oc1ccc(F)c(Cl)c1)c1nc2c(CNCC3CCN(C)CC3)nccc2c(=O)[nH]1 [Example 218, (R)-2-(1-(3-chloro-4-fluorophenoxy)ethyl)-8-((((1-methylpiperidin-4-yl)methyl)amino)methyl)pyrido[3,4-d]pyrimidin-4(3H)-one]
> 50% | C[C@H](Oc1ccc(F)c(Cl)c1)c1nc2c(CNCC3CCN(C)CC3)nccc2c(=O)[nH]1 [Example 220, (S)-2-(1-(3-chloro-4-fluorophenoxy)ethyl)-8-((((1-methylpiperidin-4-yl)methyl)amino)methyl)pyrido[3,4-d]pyrimidin-4(3H)-one]

The remaining lines, values behind:

Structure (SMILES) | inhibition at 0.1 µM
O=c1[nH]c(COCc2ccccc2)nc2c(CNC[C@H]3CCNC3)nccc12 [Example 204, (S)-2-((benzyloxy)methyl)-8-(((pyrrolidin-3-ylmethyl)amino)methyl)pyrido[3,4-d]pyrimidin-4(3H)-one] | 20 to 50%
O=c1[nH]c(COCc2cccc(Cl)c2)nc2c(CNCC3CCNCC3)nccc12 [Example 206, 2-(((3-chlorobenzyl)oxy)methyl)-8-(((piperidin-4-ylmethyl)amino)methyl)pyrido[3,4-d]pyrimidin-4(3H)-one] | > 50%
CN1CCC(CNCc2nccc3c(=O)[nH]c(COCc4cccc(Cl)c4)nc23)CC1 [Example 207, 2-(((3-chlorobenzyl)oxy)methyl)-8-((((1-methylpiperidin-4-yl)methyl)amino)methyl)pyrido[3,4-d]pyrimidin-4(3H)-one] | > 50%
O=c1[nH]c(COCc2cccc(Cl)c2)nc2c(CNC[C@H]3CCNC3)nccc12 [Example 208, (S)-2-(((3-chlorobenzyl)oxy)methyl)-8-(((pyrrolidin-3-ylmethyl)amino)methyl)pyrido[3,4-d]pyrimidin-4(3H)-one] | > 50%
O=c1[nH]c(COCc2ccccc2Cl)nc2c(CNCC3CCNCC3)nccc12 [Example 209, 2-(((2-chlorobenzyl)oxy)methyl)-8-(((piperidin-4-ylmethyl)amino)methyl)pyrido[3,4-d]pyrimidin-4(3H)-one] | > 50%
CN1CCC(CNCc2nccc3c(=O)[nH]c(COCc4ccccc4Cl)nc23)CC1 [Example 210, 2-(((2-chlorobenzyl)oxy)methyl)-8-((((1-methylpiperidin-4-yl)methyl)amino)methyl)pyrido[3,4-d]pyrimidin-4(3H)-one] | > 50%
C[C@@H](Oc1ccc(F)c(Cl)c1)c1nc2c(CNCC3CCNCC3)nccc2c(=O)[nH]1 [Example 217, (R)-2-(1-(3-chloro-4-fluorophenoxy)ethyl)-8-(((piperidin-4-ylmethyl)amino)methyl)pyrido[3,4-d]pyrimidin-4(3H)-one] | < 20%
C[C@H](Oc1ccc(F)c(Cl)c1)c1nc2c(CNCC3CCNCC3)nccc2c(=O)[nH]1 [Example 219, (S)-2-(1-(3-chloro-4-fluorophenoxy)ethyl)-8-(((piperidin-4-ylmethyl)amino)methyl)pyrido[3,4-d]pyrimidin-4(3H)-one] | 20 to 50%
CCN(CCN(C)C)C(=O)CNCc1nccc2c(=O)[nH]c(COc3ccc(F)c(Cl)c3)nc12 [Example 221, 2-(((2-((3-chloro-4-fluorophenoxy)methyl)-4-oxo-3,4-dihydropyrido[3,4-d]pyrimidin-8-yl)methyl)amino)-N-(2-(dimethylamino)ethyl)-N-ethylacetamide] | > 50%
CCCCN(CC)C(=O)CNCc1nccc2c(=O)[nH]c(COc3ccc(F)c(Cl)c3)nc12 [Example 222, N-butyl-2-(((2-((3-chloro-4-fluorophenoxy)methyl)-4-oxo-3,4-dihydropyrido[3,4-d]pyrimidin-8-yl)methyl)amino)-N-ethylacetamide] | 20 to 50%
O=C(CNCc1nccc2c(=O)[nH]c(COc3ccc(F)c(Cl)c3)nc12)N1CCCC1 [Example 223, 2-((3-chloro-4-fluorophenoxy)methyl)-8-(((2-oxo-2-(pyrrolidin-1-yl)ethyl)amino)methyl)pyrido[3,4-d]pyrimidin-4(3H)-one] | 20 to 50%
O=C(CNCc1nccc2c(=O)[nH]c(COc3ccc(F)c(Cl)c3)nc12)N1CCCCC1 [Example 224, 2-((3-chloro-4-fluorophenoxy)methyl)-8-(((2-oxo-2-(piperidin-1-yl)ethyl)amino)methyl)pyrido[3,4-d]pyrimidin-4(3H)-one] | 20 to 50%
O=C(CNCc1nccc2c(=O)[nH]c(COc3ccc(F)c(Cl)c3)nc12)N1CCOCC1 [Example 225, 2-((3-chloro-4-fluorophenoxy)methyl)-8-(((2-morpholino-2-oxoethyl)amino)methyl)pyrido[3,4-d]pyrimidin-4(3H)-one] | 20 to 50%
CN1CCN(C(=O)CNCc2nccc3c(=O)[nH]c(COc4ccc(F)c(Cl)c4)nc23)CC1 [Example 226, 2-((3-chloro-4-fluorophenoxy)methyl)-8-(((2-(4-methylpiperazin-1-yl)-2-oxoethyl)amino)methyl)pyrido[3,4-d]pyrimidin-4(3H)-one] | > 50%
CN1CCC(CNC(=O)CNCc2nccc3c(=O)[nH]c(COc4ccc(F)c(Cl)c4)nc23)C1 (stereo not drawn) [Example 227, 2-(((2-((3-chloro-4-fluorophenoxy)methyl)-4-oxo-3,4-dihydropyrido[3,4-d]pyrimidin-8-yl)methyl)amino)-N-((1-methylpyrrolidin-3-yl)methyl)acetamide] | 20 to 50%
N[C@@H]1CCN(C(=O)CNCc2nccc3c(=O)[nH]c(COc4ccc(F)c(Cl)c4)nc23)C1 [Example 228, (R)-8-(((2-(3-aminopyrrolidin-1-yl)-2-oxoethyl)amino)methyl)-2-((3-chloro-4-fluorophenoxy)methyl)pyrido[3,4-d]pyrimidin-4(3H)-one] | > 50%
N[C@H]1CCN(C(=O)CNCc2nccc3c(=O)[nH]c(COc4ccc(F)c(Cl)c4)nc23)C1 [Example 229, (S)-8-(((2-(3-aminopyrrolidin-1-yl)-2-oxoethyl)amino)methyl)-2-((3-chloro-4-fluorophenoxy)methyl)pyrido[3,4-d]pyrimidin-4(3H)-one] | > 50%
O=C(CNCc1nccc2c(=O)[nH]c(COc3ccc(F)c(Cl)c3)nc12)N[C@@H]1CCCNC1 [Example 230, (R)-2-(((2-((3-chloro-4-fluorophenoxy)methyl)-4-oxo-3,4-dihydropyrido[3,4-d]pyrimidin-8-yl)methyl)amino)-N-(piperidin-3-yl)acetamide] | > 50%
O=C(CNCc1nccc2c(=O)[nH]c(COc3ccc(F)c(Cl)c3)nc12)N[C@H]1CCCNC1 [Example 231, (S)-2-(((2-((3-chloro-4-fluorophenoxy)methyl)-4-oxo-3,4-dihydropyrido[3,4-d]pyrimidin-8-yl)methyl)amino)-N-(piperidin-3-yl)acetamide] | > 50%
O=C(CNCc1nccc2c(=O)[nH]c(COc3ccc(F)c(Cl)c3)nc12)NC1CCN(Cc2ccccc2)C1 (stereo not drawn) [Example 232, N-(1-benzylpyrrolidin-3-yl)-2-(((2-((3-chloro-4-fluorophenoxy)methyl)-4-oxo-3,4-dihydropyrido[3,4-d]pyrimidin-8-yl)methyl)amino)acetamide] | > 50%
O=C(CNCc1nccc2c(=O)[nH]c(COc3ccc(F)c(Cl)c3)nc12)N1CCC(N2CCCC2)CC1 [Example 234, 2-((3-chloro-4-fluorophenoxy)methyl)-8-(((2-oxo-2-(4-(pyrrolidin-1-yl)piperidin-1-yl)ethyl)amino)methyl)pyrido[3,4-d]pyrimidin-4(3H)-one] | > 50%
